Data: US20230107274A1, “AN ORAL PHARMACEUTICAL COMPOSITION COMPRISING AN EXTRACT OF COMBINED HERBS COMPRISING LONGANAE ARILLUS FOR THE TREATMENT OR ALLEVIATION OF INFLAMMATORY DISEASE AND THE USE THEREOF” (MEDIHELPLINE CO., LTD, priority 2020, published 2023)

What was measured:
TSLP = assay: Inhibition of cytokine expression in TNF alpha-induced HaCaT cell (Real-time PCR): TSLP; format: cell-based, human; conditions: TNFα 50 ng/ml, Dexamethasone 200 nM, TNFα+DIW control 132.4692
Experimental: (§1) In order to determine the anti-inflammatory activity of inventive extract, following inhibition test of cytokine expression using HaCaT cell was performed according to the procedure disclosed in the literature (Jeong et al., 2019, J. Invest. Dermatol., May; 139 (5): pp 1098-1109).
(§2) HaCaT cell (human epithelial keratinocyte cell, 300493, CLS) was inoculated into DMEM medium containing 10% Fetal bovine serum, 100 units/ml of penicillin, 100 μg/ml of streptomycin (D6429, Sigma-Aldrich Co. Ltd) and was incubated in the incubator (HERA cell 150i, Thermo Fisher Scientific Co. Ltd.) maintaining optimum humidity (85-95%) and 5% CO2 atmosphere.
(§3) For performing gene expression test, the incubated cells were transferred to 12 wells and 50 ng/ml of TNF alpha (RC214-12, Biobasic Co. Ltd) was treated therewith for 1 hour to induce inflammatory response.
(§4) 1 hour after inducing the inflammation, 1 μg/ml of inventive extract prepared in Examples was treated with identical medium and subjected to incubation for 1 hour. After the incubation, RNA (FATRR-001, Favorgen) was extracted from the cell and cDNA was synthesized from the RNA using by cDNA synthesis kit (RRO36A, TAKARA). […]

IL-1β = assay: Inhibition of cytokine expression in TNF alpha-induced HaCaT cell (Real-time PCR): IL-1β; format: cell-based, human; conditions: TNFα 50 ng/ml, Dexamethasone 200 nM, TNFα+DIW control 4.152715
Experimental: as §1, §2, §3, §4

[1] = tested on: MIA(Monosodium iodoacetate)-induced osteoarthritis rat model; assay: Pain threshold (dynamic plantar aesthesiometer) in MIA-induced osteoarthritis rat model; format: in vivo
Experimental: (§5) In order to evaluate the efficacy of test sample on MIA(Monosodium iodoacetate)-induced osteoarthritis rat model, following test was performed at “Joint and Immune disease T2B center(chief MD. PARK, Sung-whan) located in “The Catholic University of Korea, Seoul ST. Mary's Hospital, Seoul).
(§6) (1) Test animals: Rats (Male Wista rats, Central Lab. Animal, Seoul, Korea, 7 to 8 weeks aged, 200 to 250 g) were bred in the well-controlled breeding room in polysulfone cage (2-3 […] per cage) maintaining the temperature of 21±2° C. and relative humidity of 50±20% with the light cycle of day/dark (08:00˜20:00) at the interval of 12 hours and acclimated to the surround environment
(§7) Test method: 3 mg/kg of Monosodium iodoacetate (MIA, 12512, Sigma, Poole, UK) was dissolved in the injection saline to re reach to 60 mg/ml concentration on the day of the experiment (day 0). After dividing each groups, the experimental animals were placed in the anesthesia chamber and anesthetized with diethyl ether. 50 μL of MIA (3 mg/body) was injected into the right knee joint through the infrapatellar ligament using a 1cc syringe (26.5 gauge) in order to inducing osteoarthritis
(§8) (4) Treatment route: oral administration 3 days after inducing osteoarthritis (once a day)
(§9) After inducing osteoarthritis with MIA, test sample treatment groups (G2, G3) were prepared by homogenizing the test samples with vehicle (saline) according to the prescribed dose and orally administrating 1 mL of test sample once a day.
The positive control group (G4) was homogenized to the vehicle according to the prescribed dose and orally administered once a day.
24 rats were divided into 4 groups per 6 rats, and the test samples and positive control substance were orally administered at a specified time.
The pain threshold (nociceptive latency, threshold) was determined by using dynamic plantar aesthesiometer (Ugo Basile, 37400, Comerio, Italy), a device that gradually increases the force on the feet of Male Wistarats over a certain period of time, according to a […] evaluation method to measure pain thresholds ((Kwon J Y et al., Sci Rep. 2018 Sep. 14; 8(1):13832)
Prior to measurement, the animal was placed in an acrylic box with a wire mesh bench and acclimated for five minutes.
The pain threshold was determined by measuring the weight showing paw withdrawal behavior which animal withdraws its feet by applying a slow force of 0 to 50 g over 10 seconds using metal filaments in the center of each animal's right hind foot.
To avoid tissue damage, the cut-off threshold was set to 50 g, and the measurement time was set to the day before the inducing day of osteoarthritis by the treatment of MIA to calculate base line value in the normal control group (G1), test sample groups (G2, G3) and positive control group (G4) and the same value was obtained in the base line (day 3).
The same value was measured before the treatment of test samples (day 3) and the value was measured once a week at a certain time by administering the test samples in the […] of rats.
The test result of pain threshold was calculated according to (a) paw withdrawal latencies (sec) and (b) paw withdrawal threshold (g).

[2] = tested on: MIA(Monosodium iodoacetate)-induced osteoarthritis rat model; assay: Weight bearing in MIA-induced osteoarthritis rat model; format: in vivo
Experimental: as §5, §6, §7, §8, §9
In order to measure the change in weight (or weight distribution) between normal hind legs (left) and arthritis-induced hind legs (right), the load of both hind feet was determined using testing apparatus (Model 600, IITC, USA) according to the method described in the literature (Kwon J Y et al., Sci Rep. 2018 Sep. 14; 8(1):13832).
The test animal shall be correctly located in the holder and fixed so that both feet can be stepped symmetrically, since the load can be varied depending on the position of the animal's foot. The particular person performs the fixation to reduce the possible error to the maximum extent.
When each animal was correctly located in the holder, the machine was operated and the weight bearing of each group was measured twice for 5 seconds per measurement.
The mean value for each test result was digitized into the weight bearing(g) of each foot.
After obtaining a baseline value before MIA treatment (Day 0), the weight bearing in the normal control group (G1), test sample groups (G2, G3) and positive control group (G4), was determined at a certain time twice a week, 3 days before the treatment of test sample (day 3).
The test results of the weight load measurement were transformed into each weight bearing ratio according to below Math 1.
Weight ratio (%)={weight of right hind limb/(weight of right hind limb+weight of left hind limb)}×100 [Math.1]

[3] = tested on: MIA(Monosodium iodoacetate)-induced osteoarthritis rat model; assay: Bone injury by micro-CT in MIA-induced osteoarthritis rat model; format: in vivo; conditions: 30 mg/kg oral once a day; vehicle 45.7
Experimental: as §5, §6
(§10) Test method: 3 mg/kg of Monosodium iodoacetate (MIA, 12512, Sigma, Poole, UK) was dissolved in the injection saline to re reach to 60 mg/ml concentration on the day of the experiment (day 0). […]
The degree of bone injury around femur area of the knee joint in each group consisting of 3 rats, was determined using X-ray source (70 kV, 142 uA, AI 0.5 mm filter, rotation step 0.6°) and animal scanner (SKYSCAN1272 ex-vivo micro-CT, Bruker micro CT, Belgium) to perform micro-CT photography at 15 μm of Pixel resolution including section formation (NRecon), section rotation (Data Viewer), data Analysis (CTAN), Volume rendering generation (CTVox), and surface rendering (CTAN+CTVol).

[4] = tested on: MIA(Monosodium iodoacetate)-induced osteoarthritis rat model; assay: Bone injury by histopathological analysis (Safranin O; Total Mankin score, OARSI score) in MIA-induced osteoarthritis rat model; format: in vivo; conditions: 30 mg/kg oral once a day
Experimental: as §5, §6
as §10, with “0). After dividing each groups, the experimental animals were placed in the anesthesia chamber and anesthetized with diethyl ether.” for “0).”
The histopathological analysis was performed by photographing the femur area of knee joint (×200 fold). The test result was calculated and evaluated according to the known methods including Total Mankin score (Bulstra S K et al., 1989, Clin Orthop Relat Res: 294-302.) and OARSI score (Pritzker K. P. H. et al., 2006, Osteoarthritis Cartilage 14:13-29).

In the case of `C[C@@H]1C[C@H]2[C@@H]3CCC4=CC(=O)C=C[C@]4(C)[C@@]3(F)[C@@H](O)C[C@]2(C)[C@@]1(O)C(=O)CO` [Dex, Dexamethasone], the “TSLP expression (RT-PCR, relative to untreated = 1)” value (TSLP) is reported as 52.49 and the “IL-1β expression (RT-PCR, relative to untreated = 1)” value (IL-1β) is reported as 1.081.

Work on `Cc1ccc(-c2cc(C(F)(F)F)nn2-c2ccc(S(N)(=O)=O)cc2)cc1` [Celecoxib] yielded a paw withdrawal latencies ([1]; 30 mg/kg oral once a day, 6 days after MIA treatment, vehicle 8.6) of 9.9 ± 2.2 s, a paw withdrawal threshold ([1]; 30 mg/kg oral once a day, 6 days after MIA treatment, vehicle 17.4) of 19.9 ± 4.3 g and a paw withdrawal latencies ([1]; 30 mg/kg oral once a day, 11 days after MIA treatment, vehicle 9.1) of 10.2 ± 0.9 s. It also gave a paw withdrawal threshold ([1]; 30 mg/kg oral once a day, 11 days after MIA treatment, vehicle 18.5) of 20.7 ± 1.7 g, a paw withdrawal latencies ([1]; 30 mg/kg oral once a day, 13 days after MIA treatment, vehicle 9.0) of 10.4 ± 0.9 s and a paw withdrawal threshold ([1]; 30 mg/kg oral once a day, 13 days after MIA treatment, vehicle 18.3) of 21.0 ± 1.6 g. The paw withdrawal latencies ([1]; 30 mg/kg oral once a day, 17 days after MIA treatment, vehicle 9.5) was 10.9 ± 1.8 s, the paw withdrawal threshold ([1]; 30 mg/kg oral once a day, 17 days after MIA treatment, vehicle 19.2) was 22.0 ± 3.4 g and the paw withdrawal latencies ([1]; 30 mg/kg oral once a day, 21 days after MIA treatment, vehicle 9.0) was 11.9 ± 1.5 s. The paw withdrawal threshold ([1]; 30 mg/kg oral once a day, 21 days after MIA treatment, vehicle 18.3) was 24.0 ± 2.9 g, the paw withdrawal latencies ([1]; 30 mg/kg oral once a day, 25 days after MIA treatment, vehicle 9.0) was 11.6 ± 1.0 s and the paw withdrawal threshold ([1]; 30 mg/kg oral once a day, 25 days after MIA treatment, vehicle 18.2) was 23.4 ± 1.9 g. The paw withdrawal latencies ([1]; 30 mg/kg oral once a day, Before MIA treatment (baseline), vehicle 16.8) was 16.0 ± 1.5 s, the paw withdrawal threshold ([1]; 30 mg/kg oral once a day, Before MIA treatment (baseline), vehicle 33.6) was 33.8 ± 2.9 g and the paw withdrawal latencies ([1]; 30 mg/kg oral, 3 days after MIA treatment (before first dose), vehicle 9.4) was 9.2 ± 2.1 s. The paw withdrawal threshold ([1]; 30 mg/kg oral, 3 days after MIA treatment (before first dose), vehicle 19.0) was 18.6 ± 4.1 g, the “weight bearing, weight ratio of right hind limb” value (“weight bearing, weight ratio” for short) ([2]; 30 mg/kg oral once a day, 6 days after MIA inducement, vehicle 35.5) was 38.5 ± 1.8% and the “weight bearing, weight ratio” value ([2]; 30 mg/kg oral once a day, 11 days after MIA inducement, vehicle 33.8) was 40.0 ± 3.2%. The “weight bearing, weight ratio” value ([2]; 30 mg/kg oral once a day, 13 days after MIA inducement, vehicle 32.3) was 44.5 ± 0.7%, the “weight bearing, weight ratio” value ([2]; 30 mg/kg oral once a day, 17 days after MIA inducement, vehicle 32.2) was 43.9 ± 1.3% and the “weight bearing, weight ratio” value ([2]; 30 mg/kg oral once a day, 21 days after MIA inducement, vehicle 31.6) was 39.7 ± 3.7%. The “weight bearing, weight ratio” value ([2]; 30 mg/kg oral once a day, 25 days after MIA inducement, vehicle 33.3) was 41.7 ± 1.9%, the “weight bearing, weight ratio” value ([2]; 30 mg/kg oral once a day, Before MIA inducement (baseline), vehicle 50.6) was 49.3 ± 0.9% and the “weight bearing, weight ratio” value ([2]; 30 mg/kg oral, 3 days after MIA inducement (before first dose), vehicle 36.9) was 34.7 ± 4.0%. For the same compound, the “Bone surface (Micro-CT, femur area of knee joint)” value [3] was 57.5 ± 0.5%, the OARSI score ([4]; vehicle 4) was 2.4 ± 0.4 and the “Total Mankin score” value ([4]; vehicle 7.5) was 4 ± 0.6.
